The results in this text go back to patent EP0600782A1, “C-11 modified pradimicin derivatives” (priority 1992, dated 1994).

In test [1] the test system is Cryptococcus neoformans IAM4514. Briefly: In vitro antifungal activity (MIC), agar dilution on yeast morphology agar. In kind it is cell-based. The note with it: YMA, 0.06M phosphate (pH 7.0), 28°C, 40 hours, read-out: MIC Cn-2. As to the method:
(§1) The in vitro antifungal activity (MIC) of the compounds of the invention was determined on yeast morphology agar (YMA, Difco Laboratories, USA), buffered with 0.06M phosphate (pH 7.0). Nine parts of molten agar were combined with one part of antibiotic dilution in petri dishes. A 5-µl suspension containing 2x10⁶ cells/ml was spotted on the surface of the agar plates. The plates were incubated at 28°C and MICs were recorded after 40 hours of the incubation. All of the 11-hydroxy derivatives of Formula I-I are active against a wide range of fungi.

Test [2] deals with Candida tropicalis IFO10241. The test is described as above. Particulars: YMA, 0.06M phosphate (pH 7.0), 28°C, 40 hours, read-out: MIC Ct-12. In kind it is cell-based. As to the method: as §1
Test [3] concerns Candida albicans A9540. The test is described as above. Particulars: YMA, 0.06M phosphate (pH 7.0), 28°C, 40 hours, read-out: MIC Ca-4. In kind it is cell-based. On the procedure: as §1
Test [4] relates to Strain AA 3798. Briefly: Antibiotic susceptibility of the producing strain, antibiotic disks. It counts as cell-based, unidentified actinomycete. Particulars: yeast-glucose-malt agar, 37°C, 4 days. On the procedure: Antibiotic susceptibility of strain AA 3798 was examined using antibiotic disks (Tridisk, Eiken Chemical Co., Ltd). The disks were placed onto the surface of yeast-glucose-malt agar (yeast extract 0.1%, glucose 1%, malt extract 0.1%, CaCl₂·2H₂O 0.05%, and agar 1.5%) which had been seeded by strain AA 3798 (4% inoculum), and the plates were then incubated at 37°C for 4 days.

≈ marks a conversion by molar mass, not a printed value. Some results are limits rather than exact numbers.

As to `CNC1C(C)OC(OC2c3cc(C)c(C(=O)NC(C)C(=O)O)c(O)c3-c3c(cc4c(c3O)C(=O)c3cc(O)cc(O)c3C4=O)C2O)C(O)C1OC1OCC(O)C(O)C1O` (stereo not drawn) [Compound IA, 11-O-Demethylpradimicin A], the MIC in test [1] is 3.1 µg/mL (≈ 3.75 µM); in test [2], 25 µg/mL (≈ 30.2 µM); in test [3] it was 6.3 µg/mL (≈ 7.62 µM).
With `Cc1cc2c(c(O)c1C(=O)NC(C)C(=O)O)-c1c(cc3c(c1O)C(=O)c1cc(O)cc(O)c1C3=O)C(O)C2OC1OC(C)C(N)C(OC2OCC(O)C(O)C2O)C1O` (stereo not drawn) [IC, 11-O-Demethylpradimicin C], the MIC was found to be 1.6 µg/mL (≈ 1.97 µM) in test [1], 12.5 µg/mL (≈ 15.4 µM) in test [2] and 6.3 µg/mL (≈ 7.75 µM) in test [3].
In the case of `CNC1C(C)OC(OC2c3cc(C)c(C(=O)NC(CO)C(=O)O)c(O)c3-c3c(cc4c(c3O)C(=O)c3cc(O)cc(O)c3C4=O)C2O)C(O)C1OC1OCC(O)C(O)C1O` (stereo not drawn) [ID, 11-O-Demethylpradimicin FA-1], the MIC in test [1] is 3.1 µg/mL (≈ 3.68 µM); in test [2], 12.5 µg/mL (≈ 14.8 µM); in test [3], 6.3 µg/mL (≈ 7.48 µM).
For `Cc1cc2c(c(O)c1C(=O)NC(CO)C(=O)O)-c1c(cc3c(c1O)C(=O)c1cc(O)cc(O)c1C3=O)C(O)C2OC1OC(C)C(N(C)C)C(OC2OCC(O)C(O)C2O)C1O` (stereo not drawn) [IE, 11-O-Demethyl-BMS-181182] the same measures were 6.3 µg/mL (≈ 7.35 µM), 25 µg/mL (≈ 29.2 µM) and 6.3 µg/mL (≈ 7.35 µM).
On the same counts, the results for `Cc1cc2c(c(O)c1C(=O)NC(CO)C(=O)O)-c1c(cc3c(c1O)C(=O)c1cc(O)cc(O)c1C3=O)C(O)C2OC1OC(C)C(O)C(OC2OCC(O)C(O)C2O)C1O` (stereo not drawn) [IF, 11-O-Demethyl-BMS-181184] are 12.5 µg/mL (≈ 15.1 µM), 12.5 µg/mL (≈ 15.1 µM) and 6.3 µg/mL (≈ 7.59 µM).
Take `CCOc1cc(O)c2c(c1)C(=O)c1c(cc3c(c1O)-c1c(cc(C)c(C(=O)NCC(=O)O)c1O)[C@H](O[C@@H]1O[C@H](C)[C@H](O)[C@H](O[C@@H]4OC[C@@H](O)[C@H](O)[C@H]4O)[C@H]1O)[C@H]3O)C2=O` [IIA, 11-O-Dexylosyl-11-O-ethylpradimicin T1]: the MIC came out at 1.6 µg/mL (≈ 1.93 µM) in test [1], 12.5 µg/mL (≈ 15.1 µM) in test [2] and 3.1 µg/mL (≈ 3.75 µM) in test [3].
As to `Cc1cc2c(c(O)c1C(=O)NCC(=O)O)-c1c(cc3c(c1O)C(=O)c1cc(OCCF)cc(O)c1C3=O)[C@H](O)[C@H]2O[C@@H]1O[C@H](C)[C@H](O)[C@H](O[C@@H]2OC[C@@H](O)[C@H](O)[C@H]2O)[C@H]1O` [IIB, 11-O-Dexylosyl-11-O-(2-fluoroethyl)pradimicin T1], the MIC stood at 1.6 µg/mL (≈ 1.89 µM) in test [1], 6.3 µg/mL (≈ 7.45 µM) in test [2] and 3.1 µg/mL (≈ 3.67 µM) in test [3].
For the compound `C=CCOc1cc(O)c2c(c1)C(=O)c1c(cc3c(c1O)-c1c(cc(C)c(C(=O)NCC(=O)O)c1O)[C@H](O[C@@H]1O[C@H](C)[C@H](O)[C@H](O[C@@H]4OC[C@@H](O)[C@H](O)[C@H]4O)[C@H]1O)[C@H]3O)C2=O` [IIC, 11-O-Allyl-11-O-dexylosylpradimicin T1], the results for the MIC in test [1], in test [2] and in test [3] were 3.1 µg/mL (≈ 3.69 µM), 12.5 µg/mL (≈ 14.9 µM) and 6.3 µg/mL (≈ 7.5 µM), respectively.
As for `Cc1cc2c(c(O)c1C(=O)NCC(=O)O)-c1c(cc3c(c1O)C(=O)c1cc(OCc4ccccc4)cc(O)c1C3=O)[C@H](O)[C@H]2O[C@@H]1O[C@H](C)[C@H](O)[C@H](O[C@@H]2OC[C@@H](O)[C@H](O)[C@H]2O)[C@H]1O` [IID, 11-O-Benzyl-11-O-dexylosylpradimicin T1], the MIC in test [1] is 12.5 µg/mL (≈ 14 µM); in test [2], > 100 µg/mL; in test [3] it was > 100 µg/mL.
For `CNC1C(C)OC(OC2c3cc(C)c(C(=O)NC(C)C(=O)O)c(O)c3-c3c(cc4c(c3O)C(=O)c3cccc(O)c3C4=O)C2O)C(O)C1OC1OCC(O)C(O)C1O` (stereo not drawn) [IIG, 11-Demethoxypradimicin A], the MIC in test [1] is 1.6 µg/mL (≈ 1.97 µM); in test [2], 12.5 µg/mL (≈ 15.4 µM); in test [3], 6.3 µg/mL (≈ 7.77 µM).
On the same counts, the results for `Cc1cc2c(c(O)c1C(=O)NCC(=O)O)-c1c(cc3c(c1O)C(=O)c1cccc(O)c1C3=O)[C@H](O)[C@H]2O[C@@H]1O[C@H](C)[C@H](O)[C@H](O[C@@H]2OC[C@@H](O)[C@H](O)[C@H]2O)[C@H]1O` [III, 11-Dexylosyloxypradimicin T1] are 6.3 µg/mL (≈ 8.04 µM), 12.5 µg/mL (≈ 16 µM) and 6.3 µg/mL (≈ 8.04 µM).
`Cc1cc2c(c(O)c1C(=O)NCC(=O)O)-c1c(cc3c(c1O)C(=O)c1cc(N(C)C)cc(O)c1C3=O)[C@H](O)[C@H]2O[C@@H]1O[C@H](C)[C@H](O)[C@H](O[C@@H]2OC[C@@H](O)[C@H](O)[C@H]2O)[C@H]1O` [IIJ, 11-Dexylosyloxy-11-dimethylaminopradimicin T1]: the figures for the MIC in test [1], in test [2] and in test [3] were 50 µg/mL (≈ 60.5 µM), > 100 µg/mL and 12.5 µg/mL (≈ 15.1 µM), respectively.
On the same counts, the results for `Cc1cc2c(c(O)c1C(=O)NCC(=O)O)-c1c(cc3c(c1O)C(=O)c1cc(C(N)=O)cc(O)c1C3=O)[C@H](O)[C@H]2O[C@@H]1O[C@H](C)[C@H](O)[C@H](O[C@@H]2OC[C@@H](O)[C@H](O)[C@H]2O)[C@H]1O` [IIK, 11-Carbamoyl-11-dexylosyloxy pradimicin T1] are 6.3 µg/mL (≈ 7.62 µM), 25 µg/mL (≈ 30.2 µM) and 12.5 µg/mL (≈ 15.1 µM).
For `Cc1cc2c(c(O)c1C(=O)NCC(=O)O)-c1c(cc3c(c1O)C(=O)c1cc(C#N)cc(O)c1C3=O)[C@H](O)[C@H]2O[C@@H]1O[C@H](C)[C@H](O)[C@H](O[C@@H]2OC[C@@H](O)[C@H](O)[C@H]2O)[C@H]1O` [IIL, 11-Cyano-11-dexylosyloxy pradimicin T1], the results for the MIC in test [1], in test [2] and in test [3] were 6.3 µg/mL (≈ 7.79 µM), 25 µg/mL (≈ 30.9 µM) and 12.5 µg/mL (≈ 15.5 µM), respectively.
With `CN[C@@H]1[C@H](O[C@@H]2OC[C@@H](O)[C@H](O)[C@H]2O)[C@@H](O)[C@H](O[C@H]2c3cc(C)c(C(=O)N[C@H](C)C(=O)O)c(O)c3-c3c(cc4c(c3O)C(=O)c3cc(OC)cc(O)c3C4=O)[C@@H]2O)O[C@@H]1C` [Pradimicin A, reference compound], the MIC amounted to 1.6 µg/mL (≈ 1.9 µM) in test [1], 12.5 µg/mL (≈ 14.9 µM) in test [2] and 6.3 µg/mL (≈ 7.49 µM) in test [3].
In the case of `CC1(C)S[C@@H]2[C@H](NC(=O)[C@H](N)c3ccccc3)C(=O)N2[C@H]1C(=O)O` [ampicillin], in test [4] (disk 20 µg), the “Antibiotic susceptibility of strain AA 3798” value (“Antibiotic susceptibility” for short) was “resistance”.
Regarding `CC1=C(C(=O)O)N2C(=O)[C@@H](NC(=O)[C@H](N)c3ccccc3)[C@H]2SC1` [cephalexin], the “Antibiotic susceptibility” value in test [4] (disk 10 µg) is listed as “resistance”.
Still for that read-out and setting: the value for `O=C(N[C@H](CO)[C@H](O)c1ccc([N+](=O)[O-])cc1)C(Cl)Cl` [chloramphenicol] was “susceptible”.
For `O=C(O)[C@H]1/C(=C/CO)O[C@@H]2CC(=O)N21` [clavulanic acid], in test [4] (disk 1 µg), the “Antibiotic susceptibility” value is recorded as “susceptible”.
On to `CC[C@H]1OC(=O)[C@H](C)[C@@H](O[C@H]2C[C@@](C)(OC)[C@@H](O)[C@H](C)O2)[C@H](C)[C@@H](O[C@@H]2O[C@H](C)C[C@H](N(C)C)[C@H]2O)[C@](C)(O)C[C@@H](C)C(=O)[C@H](C)[C@@H](O)[C@]1(C)O` [erythromycin], for which the “Antibiotic susceptibility” value in test [4] (disk 10 µg) is on record as “resistance”.
Regarding `C[C@@H]1O[C@@H]1P(=O)(O)O` [fosfomycin], in test [4] (disk 50 µg), the “Antibiotic susceptibility” value was “resistance”.
As to `CO[C@@H]1[C@@H](O[C@@H]2O[C@H](C)[C@@H](O[C@H]3C[C@@](C)(O)[C@@H](OC(=O)CC(C)C)[C@H](C)O3)[C@H](N(C)C)[C@H]2O)[C@@H](CC=O)C[C@@H](C)[C@@H](O)/C=C/C=C/C[C@@H](C)OC(=O)C[C@H]1OC(C)=O` [josamycin], in test [4] (disk 15 µg), the “Antibiotic susceptibility” value is “resistance”.
Take `CCC[C@@H]1C[C@@H](C(=O)N[C@@H]([C@H]2O[C@H](SC)[C@H](O)[C@@H](O)[C@H]2O)[C@@H](C)O)N(C)C1` [lincomycin]: the “Antibiotic susceptibility” value in test [4] (disk 15 µg) was “resistance”.
Turning to `CCn1cc(C(=O)O)c(=O)c2ccc(C)nc21` [nalidixic acid], the “Antibiotic susceptibility” value in test [4] (disk 15 µg) is “resistance”.
Turning to `CCn1cc(C(=O)O)c(=O)c2cc(F)c(N3CCNCC3)cc21` [norfloxacin], the “Antibiotic susceptibility” value in test [4] (disk 2 µg) is on record as “susceptible”.
On the same count and under the same terms, the value for `CC1(C)S[C@@H]2[C@H](NC(=O)[C@H](C(=O)O)c3ccsc3)C(=O)N2[C@H]1C(=O)O` [ticarcillin] was “susceptible”.
Turning to `NC[C@H]1O[C@H](O[C@H]2[C@H](O)[C@@H](O[C@H]3O[C@H](CO)[C@@H](O)[C@H](N)[C@H]3O)[C@H](N)C[C@@H]2N)[C@H](N)C[C@@H]1O` [tobramycin], the “Antibiotic susceptibility” value in test [4] (disk 10 µg) was “resistance”.
On to colistin, for which, in test [4] (disk 50 U), the “Antibiotic susceptibility” value is recorded as “susceptible”.
As to gentamicin, the “Antibiotic susceptibility” value in test [4] (disk 5 µg) was “resistance”.
In the case of polymyxin B, in test [4] (disk 300 U), the “Antibiotic susceptibility” value is recorded as “resistance”.
